Where a name gives a salt, the structure may show the parent alone. Read-outs that look alike come from different tables or passages of the source.
Test system: recombinant NL4-3 virus (Renilla luciferase in nef, Gag P373S)
Assay: HIV Cell Culture Assay (luciferase reporter virus in MT-2 cells)
Type: cell-based
Experimental: MT-2 cells and 293T cells were obtained from the NIH AIDS Research and Reference Reagent Program. MT-2 cells were propagated in RPMI 1640 media supplemented with 10% heat inactivated fetal bovine serum, […]. The 293T cells were propagated in DMEM media supplemented with 10% heat inactivated fetal bovine serum (FBS), 100 units/ml penicillin G and 100 μg/ml streptomycin. The proviral DNA clone of NL4-3 was obtained from the NIH AIDS Research and Reference Reagent Program. A recombinant NL4-3 virus, in which a section of the nef gene from NL4-3 was replaced with the Renilla luciferase gene, was used as a reference virus. In addition, residue Gag P373 was converted to P373S. Briefly, the recombinant virus was prepared by transfection of the altered proviral clone of NL4-3. Transfections were performed in 293T cells using LipofectAMINE PLUS from Invitrogen (Carlsbad, Calif.), according to manufacturer's instruction. The virus was titered in MT-2 cells using luciferase enzyme activity as a marker. Luciferase was quantitated using the Dual Luciferase kit from Promega (Madison, Wis.), with modifications to the manufacturer's protocol. The diluted Passive Lysis solution was pre-mixed with the re-suspended Luciferase Assay Reagent and the re-suspended Stop & Glo Substrate (2:1:1 ratio). Fifty (50) μL of the mixture was added to each aspirated well on assay plates and luciferase activity was measured immediately on a Wallac TriLux (Perkin-Elmer). Antiviral activities of inhibitors toward the recombinant virus were quantified by measuring luciferase activity in cells infected for 4-5 days with NLRluc recombinants in the presence serial dilutions of the inhibitor. Table 1 is the key for the data in Table 2.

Structure (SMILES): C=C(C)[C@@H]1CC[C@]2(C(=O)NCCc3ccccn3)CC[C@]3(C)[C@H](CC[C@@H]4[C@@]5(C)CC=C(c6ccc(C(=O)O)cc6)C(C)(C)[C@@H]5CC[C@]43C)[C@@H]12 [Example 1, 4-((1R,3aS,5aR,5bR,7aR,11aS,11bR,13aR,13bR)-5a,5b,8,8,11a-pentamethyl-1-(prop-1-en-2-yl)-3a-(2-(pyridin-2-yl)ethylcarbamoyl)-2,3,3a,4,5,5a,5b,6,7,7a,8,11,11a,11b,12,13,13a,13b-octadecahydro-1H-cyclopenta[a]chrysen-9-yl)benzoic acid]
- EC50 (NL43, read-out: EC50 Group): < 100 nM

Structure (SMILES): C=C(C)[C@@H]1CC[C@]2(C(=O)NCc3ccccn3)CC[C@]3(C)[C@H](CC[C@@H]4[C@@]5(C)CC=C(c6ccc(C(=O)O)cc6)C(C)(C)[C@@H]5CC[C@]43C)[C@@H]12 [Example 2, 4-((1R,3aS,5aR,5bR,7aR,11aS,11bR,13aR,13bR)-5a,5b,8,8,11a-pentamethyl-1-(prop-1-en-2-yl)-3a-(pyridin-2-ylmethylcarbamoyl)-2,3,3a,4,5,5a,5b,6,7,7a,8,11,11a,11b,12,13,13a,13b-octadecahydro-1H-cyclopenta[a]chrysen-9-yl)benzoic acid]
- EC50 (NL43, read-out: EC50 Group): < 100 nM

Structure (SMILES): C=C(C)[C@@H]1CC[C@]2(C(=O)NCCc3cccnc3)CC[C@]3(C)[C@H](CC[C@@H]4[C@@]5(C)CC=C(c6ccc(C(=O)O)cc6)C(C)(C)[C@@H]5CC[C@]43C)[C@@H]12 [Example 3, 4-((1R,3aS,5aR,5bR,7aR,11aS,11bR,13aR,13bR)-5a,5b,8,8,11a-pentamethyl-1-(prop-1-en-2-yl)-3a-(2-(pyridin-3-yl)ethylcarbamoyl)-2,3,3a,4,5,5a,5b,6,7,7a,8,11,11a,11b,12,13,13a,13b-octadecahydro-1H-cyclopenta[a]chrysen-9-yl)benzoic acid]
- EC50 (NL43, read-out: EC50 Group): < 100 nM

Structure (SMILES): C=C(C)[C@@H]1CC[C@]2(C(=O)NCCc3ccc(OC)cc3)CC[C@]3(C)[C@H](CC[C@@H]4[C@@]5(C)CC=C(c6ccc(C(=O)O)cc6)C(C)(C)[C@@H]5CC[C@]43C)[C@@H]12 [Example 4, 4-((1R,3aS,5aR,5bR,7aR,11aS,11bR,13aR,13bR)-3a-(4-methoxyphenethylcarbamoyl)-5a,5b,8,8,11a-pentamethyl-1-(prop-1-en-2-yl)-2,3,3a,4,5,5a,5b,6,7,7a,8,11,11a,11b,12,13,13a,13b-octadecahydro-1H-cyclopenta[a]chrysen-9-yl)benzoic acid]
- EC50 (NL43, read-out: EC50 Group): < 100 nM

Structure (SMILES): C=C(C)[C@@H]1CC[C@]2(C(=O)NC3(c4ccccn4)CC3)CC[C@]3(C)[C@H](CC[C@@H]4[C@@]5(C)CC=C(c6ccc(C(=O)O)cc6)C(C)(C)[C@@H]5CC[C@]43C)[C@@H]12 [Example 5, 4-((1R,3aS,5aR,5bR,7aR,11aS,11bR,13aR,13bR)-5a,5b,8,8,11a-pentamethyl-1-(prop-1-en-2-yl)-3a-(1-(pyridin-2-yl)cyclopropylcarbamoyl)-2,3,3a,4,5,5a,5b,6,7,7a,8,11,11a,11b,12,13,13a,13b-octadecahydro-1H-cyclopenta[a]chrysen-9-yl)benzoic acid]
- EC50 (NL43, read-out: EC50 Group): < 100 nM

Structure (SMILES): C=C(C)[C@@H]1CC[C@]2(C(=O)NS(=O)(=O)C3CC3)CC[C@]3(C)[C@H](CC[C@@H]4[C@@]5(C)CC=C(c6ccc(C(=O)O)cc6)C(C)(C)[C@@H]5CC[C@]43C)[C@@H]12 [Example 6, 4-((1R,3aS,5aR,5bR,7aR,11aS,11bR,13aR,13bR)-3a-(cyclopropylsulfonylcarbamoyl)-5a,5b,8,8,11a-pentamethyl-1-(prop-1-en-2-yl)-2,3,3a,4,5,5a,5b,6,7,7a,8,11,11a,11b,12,13,13a,13b-octadecahydro-1H-cyclopenta[a]chrysen-9-yl)benzoic acid]
- EC50 (NL43, read-out: EC50 Group): < 100 nM

Structure (SMILES): C=C(C)[C@@H]1CC[C@]2(C(=O)NS(=O)(=O)N(C)C)CC[C@]3(C)[C@H](CC[C@@H]4[C@@]5(C)CC=C(c6ccc(C(=O)O)cc6)C(C)(C)[C@@H]5CC[C@]43C)[C@@H]12 [Example 7, 4-((1R,3aS,5aR,5bR,7aR,11aS,11bR,13aR,13bR)-3a-(N,N-dimethylsulfamoylcarbamoyl)-5a,5b,8,8,11a-pentamethyl-1-(prop-1-en-2-yl)-2,3,3a,4,5,5a,5b,6,7,7a,8,11,11a,11b,12,13,13a,13b-octadecahydro-1H-cyclopenta[a]chrysen-9-yl)benzoic acid]
- EC50 (NL43, read-out: EC50 Group): < 100 nM

Structure (SMILES): C=C(C)[C@@H]1CC[C@]2(C(=O)NS(C)(=O)=O)CC[C@]3(C)[C@H](CC[C@@H]4[C@@]5(C)CC=C(c6ccc(C(=O)O)cc6)C(C)(C)[C@@H]5CC[C@]43C)[C@@H]12 [Example 8, 4-((1R,3aS,5aR,5bR,7aR,11aS,11bR,13aR,13bR)-5a,5b,8,8,11a-pentamethyl-3a-(methylsulfonylcarbamoyl)-1-(prop-1-en-2-yl)-2,3,3a,4,5,5a,5b,6,7,7a,8,11,11a,11b,12,13,13a,13b-octadecahydro-1H-cyclopenta[a]chrysen-9-yl)benzoic acid]
- EC50 (NL43, read-out: EC50 Group): < 100 nM

Structure (SMILES): C=C(C)[C@@H]1CC[C@]2(C(=O)N3CCC[C@@H]3CO)CC[C@]3(C)[C@H](CC[C@@H]4[C@@]5(C)CC=C(c6ccc(C(=O)O)cc6)C(C)(C)[C@@H]5CC[C@]43C)[C@@H]12 [Example 9, 4-((1R,3aS,5aR,5bR,7aR,11aS,11bR,13aR,13bR)-3a-((R)-2-(hydroxymethyl)pyrrolidine-1-carbonyl)-5a,5b,8,8,11a-pentamethyl-1-(prop-1-en-2-yl)-2,3,3a,4,5,5a,5b,6,7,7a,8,11,11a,11b,12,13,13a,13b-octadecahydro-1H-cyclopenta[a]chrysen-9-yl)benzoic acid]
- EC50 (NL43, read-out: EC50 Group): < 100 nM

Structure (SMILES): C=C(C)[C@@H]1CC[C@]2(C(=O)N3CCN(C)CC3)CC[C@]3(C)[C@H](CC[C@@H]4[C@@]5(C)CC=C(c6ccc(C(=O)O)cc6)C(C)(C)[C@@H]5CC[C@]43C)[C@@H]12 [Example 10, 4-((1R,3aS,5aR,5bR,7aR,11aS,11bR,13aR,13bR)-5a,5b,8,8,11a-pentamethyl-3a-(4-methylpiperazine-1-carbonyl)-1-(prop-1-en-2-yl)-2,3,3a,4,5,5a,5b,6,7,7a,8,11,11a,11b,12,13,13a,13b-octadecahydro-1H-cyclopenta[a]chrysen-9-yl)benzoic acid]
- EC50 (NL43, read-out: EC50 Group): < 100 nM

Structure (SMILES): C=C(C)[C@@H]1CC[C@]2(C(=O)N3CCCC(C(=O)N(CC)CC)C3)CC[C@]3(C)[C@H](CC[C@@H]4[C@@]5(C)CC=C(c6ccc(C(=O)O)cc6)C(C)(C)[C@@H]5CC[C@]43C)[C@@H]12 (stereo partly drawn) [Example 11, 4-((1R,3aS,5aR,5bR,7aR,11aS,11bR,13aR,13bR)-3a-(3-(diethylcarbamoyl)piperidine-1-carbonyl)-5a,5b,8,8,11a-pentamethyl-1-(prop-1-en-2-yl)-2,3,3a,4,5,5a,5b,6,7,7a,8,11,11a,11b,12,13,13a,13b-octadecahydro-1H-cyclopenta[a]chrysen-9-yl)benzoic acid]
- EC50 (NL43): 61 nM

Structure (SMILES): C=C(C)[C@@H]1CC[C@]2(C(=O)NCCN3CCOCC3)CC[C@]3(C)[C@H](CC[C@@H]4[C@@]5(C)CC=C(c6ccc(C(=O)O)cc6)C(C)(C)[C@@H]5CC[C@]43C)[C@@H]12 [Example 12, 4-((1R,3aS,5aR,5bR,7aR,11aS,11bR,13aR,13bR)-5a,5b,8,8,11a-pentamethyl-3a-(2-morpholinoethylcarbamoyl)-1-(prop-1-en-2-yl)-2,3,3a,4,5,5a,5b,6,7,7a,8,11,11a,11b,12,13,13a,13b-octadecahydro-1H-cyclopenta[a]chrysen-9-yl)benzoic acid]
- EC50 (NL43, read-out: EC50 Group): < 100 nM

Structure (SMILES): C=C(C)[C@@H]1CC[C@]2(C(=O)N3CCN(CCO)CC3)CC[C@]3(C)[C@H](CC[C@@H]4[C@@]5(C)CC=C(c6ccc(C(=O)O)cc6)C(C)(C)[C@@H]5CC[C@]43C)[C@@H]12 [Example 13, 4-((1R,3aS,5aR,5bR,7aR,11aS,11bR,13aR,13bR)-3a-(4-(2-hydroxyethyl)piperazine-1-carbonyl)-5a,5b,8,8,11a-pentamethyl-1-(prop-1-en-2-yl)-2,3,3a,4,5,5a,5b,6,7,7a,8,11,11a,11b,12,13,13a,13b-octadecahydro-1H-cyclopenta[a]chrysen-9-yl)benzoic acid, TFA]
- EC50 (NL43, read-out: EC50 Group): < 100 nM

Structure (SMILES): C=C(C)[C@@H]1CC[C@]2(C(=O)Nc3ccc(OC)cc3)CC[C@]3(C)[C@H](CC[C@@H]4[C@@]5(C)CC=C(c6ccc(C(=O)O)cc6)C(C)(C)[C@@H]5CC[C@]43C)[C@@H]12 [Example 14, 4-((1R,3aS,5aR,5bR,7aR,11aS,11bR,13aR,13bR)-3a-(4-methoxyphenylcarbamoyl)-5a,5b,8,8,11a-pentamethyl-1-(prop-1-en-2-yl)-2,3,3a,4,5,5a,5b,6,7,7a,8,11,11a,11b,12,13,13a,13b-octadecahydro-1H-cyclopenta[a]chrysen-9-yl)benzoic acid]
- EC50 (NL43): 110 nM

Structure (SMILES): C=C(C)[C@@H]1CC[C@]2(C(=O)NCc3ccc(OC)cc3)CC[C@]3(C)[C@H](CC[C@@H]4[C@@]5(C)CC=C(c6ccc(C(=O)O)cc6)C(C)(C)[C@@H]5CC[C@]43C)[C@@H]12 [Example 15, 4-((1R,3aS,5aR,5bR,7aR,11aS,11bR,13aR,13bR)-3a-(4-methoxybenzylcarbamoyl)-5a,5b,8,8,11a-pentamethyl-1-(prop-1-en-2-yl)-2,3,3a,4,5,5a,5b,6,7,7a,8,11,11a,11b,12,13,13a,13b-octadecahydro-1H-cyclopenta[a]chrysen-9-yl)benzoic acid]
- EC50 (NL43, read-out: EC50 Group): < 100 nM
